# Laboratory results: US4826875A, “Pharmaceutical compositions containing levodopa methyl ester, preparation and therapeutic applications thereof” (priority 1986, dated 1989)
# Read-outs that look alike come from different tables or passages of the source.
# How the values were obtained:
# [1] = other experimental patterns; cited from earlier work
# [2] = Absorption by rectal route
# clinical = test: clinical; design: species or system patients; conditions: human, in vivo, po
# Excerpt: The pharmaceutical composition as per Example 1 above has been orally administered to parkinsonian patients manifesting the on-off phenomenon, in order to evaluate the bioavailability and the clinical effect of LDME in this formulation in comparison with levodopa.
# (§1) As previously illustrated, patients manifesting the on-off phenomenon alternate between periods when parkinsonian signs are relatively severe and intervals when parkinsonism is largely, if not completely, replaced by unvoluntary movements.
# The absorption of LDME was infact very rapid, reaching the maximum concentration peak at 40-45 minutes from the administration.
# Levodopa plasmatic levels after single oral administration
# of corresponding doses of active principle (mg 200) re-
# spectively of LDME and levodopa in two patients.
# [3] = test system: parkinsonian patients manifesting the on-off phenomenon; test: Clinical effect of oral LDME (Example 1 composition) vs levodopa in parkinsonian patients manifesting the on-off phenomenon; format: in vivo
# Excerpt: as §1
# Solubility = format: physicochemical; conditions: aqueous compositions
# reserpine-treated cats = conditions: cited from earlier work
# [4] = in vivo
# [5] = cited from earlier work
# Parkinson's disease = conditions: cited from earlier work
smiles,measurement,setting,value
"COC(=O)[C@@H](N)Cc1ccc(O)c(O)c1 [LDME, levodopa methyl ester]",activity compared with the starting compound (levodopa),[1],as active as the starting compound
same,rectal absorption / plasma levels by rectal administration,[2],detectable plasma levels sufficient to assure a therapeutic effect
same,absorption,clinical,very rapid
same,time of maximum concentration peak from the administration,clinical,40 to 45 min
same,Levodopa plasmatic levels,clinical; 0 min,0 µg/mL
same,Levodopa plasmatic levels,clinical; 330 min,0.20 µg/mL
same,"duration of action (""on"" period duration) in respect to levodopa",[3]; composition of Example 1,superior
same,onset of the therapeutic effect,[3]; composition of Example 1,20 to 30 min
same,"dyskinesias at the moment of the appearance of the mobility (""on"" phase)","[3]; composition of Example 1, subjects presenting ""long-term syndrome"", preliminary trials",does not seem to induce dyskinesias
same,solubility,Solubility,high solubility
same,"effects compared with levodopa (brain catecholamine levels, conditioned avoidance response)",reserpine-treated cats,causes the same effects as levodopa
"N[C@@H](Cc1ccc(O)c(O)c1)C(=O)O [levodopa, (-)-3-(3,4-dihydroxyphenyl)-L-alanine]",Levodopa plasmatic levels,clinical; 0 min,0 µg/mL
same,Levodopa plasmatic levels,clinical; 0.25 h,0.35 µg/mL
same,Levodopa plasmatic levels,clinical; 0.5 h,0.66 µg/mL
same,Levodopa plasmatic levels,clinical; 0.75 h,0.88 µg/mL
same,Levodopa plasmatic levels,clinical; 1 h,1.15 µg/mL
same,Levodopa plasmatic levels,clinical; 80 min,1.67 µg/mL
same,Levodopa plasmatic levels,clinical; 100 min,1.39 µg/mL
same,Levodopa plasmatic levels,clinical; 2 h,1.35 µg/mL
same,Levodopa plasmatic levels,clinical; 140 min,1.05 µg/mL
same,Levodopa plasmatic levels,clinical; 160 min,0.82 µg/mL
same,Levodopa plasmatic levels,clinical; 3 h,0.80 µg/mL
same,Levodopa plasmatic levels,clinical; 3.5 h,0.58 µg/mL
same,Levodopa plasmatic levels,clinical; 4 h,0.45 µg/mL
same,Levodopa plasmatic levels,clinical; 4.5 h,0.38 µg/mL
same,Levodopa plasmatic levels,clinical; 5 h,0.17 µg/mL
same,concentration at 0.25 h,clinical; Levodopa plasmatic levels,310 ng/mL
same,concentration at 0.5 h,clinical; Levodopa plasmatic levels,1050 ng/mL
same,concentration at 0.75 h,clinical; Levodopa plasmatic levels,1410 ng/mL
same,concentration at 1 h,clinical; Levodopa plasmatic levels,1130 ng/mL
same,concentration at 80 min,clinical; Levodopa plasmatic levels,1470 ng/mL
same,concentration at 100 min,clinical; Levodopa plasmatic levels,1170 ng/mL
same,concentration at 2 h,clinical; Levodopa plasmatic levels,930 ng/mL
same,concentration at 140 min,clinical; Levodopa plasmatic levels,1030 ng/mL
same,concentration at 160 min,clinical; Levodopa plasmatic levels,820 ng/mL
same,concentration at 3 h,clinical; Levodopa plasmatic levels,650 ng/mL
same,concentration at 3.5 h,clinical; Levodopa plasmatic levels,700 ng/mL
same,concentration at 4 h,clinical; Levodopa plasmatic levels,490 ng/mL
same,concentration at 4.5 h,clinical; Levodopa plasmatic levels,350 ng/mL
same,concentration at 5 h,clinical; Levodopa plasmatic levels,280 ng/mL
same,concentration at 5.5 h,clinical; Levodopa plasmatic levels,420 ng/mL
same,rectal absorption / plasma levels by rectal administration,[4],not absorbed by rectal mucosa
same,solubility,[5],slightly soluble
same,"duration of efficacy (""end-of-dose deterioration"")",Parkinson's disease; chronic treatment per os,3 to 4 h
same,unwanted effects,Parkinson's disease; chronic treatment per os,abnormal unvoluntary movements
same,clinical response,Parkinson's disease; constant intravenous infusion,a stable clinical response can be maintained for hours
CC(C)C[C@H]1C(=O)N2CCC[C@H]2[C@]2(O)O[C@](NC(=O)[C@@H]3C=C4c5cccc6[nH]c(Br)c(c56)C[C@H]4N(C)C3)(C(C)C)C(=O)N12 [bromocriptine],prevention or reduction of response fluctuations,Parkinson's disease; alternative therapies with dopaminergic drugs,do not give actual advantages in prevention or reduction of response fluctuations
